# Experimental data: patent US8846928B2 (Portola Pharmaceuticals, Inc., priority 2010, dated 2014)
# Target: T1, full length active recombinant SYK enzyme (Homo sapiens, UniProt P43405)
# T1 construct: full length active recombinant SYK enzyme (Millipore, Calif.); purchased Millipore
# Assay: Inhibition of Syk tyrosine phosphorylation activity (LANCE TR-FRET kinase assay)
# Assay type: biochemical
row,Compound,IC50
1,"NC(=O)c1ccc(N[C@@H]2CCCC[C@@H]2N)nc1Nc1ccc2ccncc2c1 [Example 137, 2-(isoquinolin-7-ylamino)-6-((1R,2S)-2-aminocyclohexylamino)nicotinamide]",1 to 10 nM
2,"NC(=O)c1cc(F)c(N[C@@H]2CCCC[C@@H]2N)nc1Nc1ccn2ccnc2c1 [Example 62, 6-((1R,2S)-2-aminocyclohexylamino)-5-fluoro-2-(imidazo[1,2-a]pyridin-7-ylamino)nicotinamide]",1 to 10 nM
3,"COc1cc(F)cc(Nc2nc(N[C@@H]3CCCC[C@@H]3N)c(F)cc2C(N)=O)c1 [Example 326, 6-((1R,2S)-2-aminocyclohexylamino)-5-fluoro-2-(3-fluoro-5-methoxyphenylamino)nicotinamide]",< 1 nM
4,"NC(=O)c1cc(F)c(N[C@@H]2CCCC[C@@H]2N)nc1Nc1ccc2ncsc2c1 [Example 60, 6-((1R,2S)-2-aminocyclohexylamino)-2-(benzo[d]thiazol-6-ylamino)-5-fluoronicotinamide]",< 1 nM
5,"Cc1ccc(Nc2nc(NC[C@@H](N)CC(F)F)c(F)cc2C(N)=O)cc1 [Example 381, (S)-2-(p-toluidino)-6-(2-amino-4,4-difluorobutylamino)-5-fluoronicotinamide]",100 to 1000 nM
6,"NC(=O)c1ccc(N[C@@H]2CCCC[C@@H]2N)nc1Nc1cccnc1 [Example 180, 6-((1R,2S)-2-aminocyclohexylamino)-2-(pyridin-3-ylamino)nicotinamide]",1 to 10 nM
7,"CC(C)C[C@@H](Nc1nc(Nc2cccc(-n3nccn3)c2)c(C(N)=O)cc1C#N)C(N)=O [Example 125, (R)-2-(3-(2H-1,2,3-triazol-2-yl)phenylamino)-6-(1-amino-4-methyl-1-oxopentan-2-ylamino)-5-cyanonicotinamide]",100 to 1000 nM
8,"Cc1cc(Nc2nc(N[C@@H]3CCCC[C@@H]3N)c(F)cc2C(N)=O)ccn1 [Example 85, 6-((1R,2S)-2-aminocyclohexylamino)-5-fluoro-2-(2-methylpyridin-4-ylamino)nicotinamide]",1 to 10 nM
9,NC(=O)c1cc(F)c(N[C@@H]2CCCC[C@@H]2N)nc1Nc1cncc(-n2ccnc2)c1 [Example 160],10 to 100 nM
10,"C[C@H](CN)Nc1nc(Nc2ccc3ncccc3c2)c(C(N)=O)cc1C#N [Example 114, (R)-6-(1-aminopropan-2-ylamino)-5-cyano-2-(quinolin-6-ylamino)nicotinamide]",10 to 100 nM
11,"CC(C)C[C@@H](Nc1nc(Nc2ccc3ncccc3c2)c(C(N)=O)cc1C#N)C(N)=O [Example 124, (R)-6-(1-amino-4-methyl-1-oxopentan-2-ylamino)-2-(quinolin-6-ylamino)-5-cyanonicotinamide]",10 to 100 nM
12,"NC(=O)c1cc(F)c(N[C@@H]2CCCC[C@@H]2N)nc1Nc1cnsc1 [Example 178, 6-((1R,2S)-2-aminocyclohexylamino)-5-fluoro-2-(isothiazol-4-ylamino)nicotinamide]",10 to 100 nM
13,"Cn1ncc2c(Nc3nc(N[C@@H]4CCCC[C@@H]4N)ccc3C(N)=O)cccc21 [Example 398, 6-((1R,2S)-2-aminocyclohexylamino)-2-(1-methyl-1H-indazol-4-ylamino)nicotinamide]",1 to 10 nM
14,"NC(=O)c1cc(F)c(N[C@@H]2CCCC(F)(F)[C@@H]2N)nc1Nc1cccc(Cl)c1 [Example 336, 6-((1R,2R)-2-amino-3,3-difluorocyclohexylamino)-2-(3-chlorophenylamino)-5-fluoronicotinamide]",100 to 1000 nM
15,"Cn1ccc2c(Nc3nc(N[C@@H]4CCCC[C@@H]4N)c(F)cc3C(N)=O)cccc21 [Example 64, 6-((1R,2S)-2-aminocyclohexylamino)-5-fluoro-2-(1-methyl-1H-indol-4-ylamino)nicotinamide]",< 1 nM
16,"NC(=O)c1cc(F)c(N[C@@H]2CCCC[C@@H]2N)nc1Nc1cccc(-n2cccc2)c1 [Example 187, 2-(3-(1H-pyrrol-1-yl)phenylamino)-6-((1R,2S)-2-aminocyclohexylamino)-5-fluoronicotinamide]",1 to 10 nM
17,"NC(=O)c1cc(F)c(N[C@@H]2CCCC[C@@H]2N)nc1Nc1ccc2ncccc2c1 [Example 66, 6-((1R,2S)-2-aminocyclohexylamino)-5-fluoro-2-(quinolin-6-ylamino)nicotinamide]",< 1 nM
18,"Cc1cc(Nc2cc(N[C@H](COCc3ccccc3)C(N)=O)ccc2C(N)=O)sn1 [Example 15, (R)-4-(1-amino-3-(benzyloxy)-1-oxopropan-2-ylamino)-2-(3-methylisothiazol-5-ylamino)benzamide]",100 to 1000 nM
19,"Cn1ccc2c(Nc3nc(N[C@@H]4CCCC[C@@H]4N)ccc3C(N)=O)cccc21 [Example 396, 6-((1R,2S)-2-aminocyclohexylamino)-2-(1-methyl-1H-indol-4-ylamino)nicotinamide]",1 to 10 nM
20,"NC(=O)c1ccc(N[C@@H]2CCCC[C@@H]2N)nc1Nc1cccc(-n2nccn2)c1 [Example 132, 2-(3-(2H-1,2,3-triazol-2-yl)phenylamino)-6-((1R,2S)-2-aminocyclohexylamino)nicotinamide]",1 to 10 nM
21,"CC[C@@H](Nc1nc(Nc2ccc3cccnc3c2)c(C(N)=O)cc1F)C(N)=O [Example 97, (R)-6-(1-amino-1-oxobutan-2-ylamino)-5-fluoro-2-(quinolin-7-ylamino)nicotinamide]",10 to 100 nM
22,"C[C@@H](Nc1nc(Nc2ccc3ncccc3c2)c(C(N)=O)cc1F)C(N)=O [Example 302, (R)-6-(1-amino-1-oxopropan-2-ylamino)-5-fluoro-2-(quinolin-6-ylamino)nicotinamide]",10 to 100 nM
23,"NC(=O)c1cc(F)c(N[C@@H]2CCCC(F)(F)[C@@H]2N)nc1Nc1ccc2ncccc2c1 [Example 291, 6-((1R,2R)-2-amino-3,3-difluorocyclohexylamino)-5-fluoro-2-(quinolin-6-ylamino)nicotinamide]",10 to 100 nM
24,"Cc1cccc(Nc2nc(N[C@H](C)C(N)=O)ccc2C(N)=O)c1 [Example 104, (R)-2-(m-toluidino)-6-(1-amino-1-oxopropan-2-ylamino)nicotinamide]",100 to 1000 nM
25,"NC(=O)c1cc(F)c(N[C@@H]2CCCC[C@@H]2N)nc1Nc1cccc(-c2nccs2)c1 [Example 189, 6-((1R,2S)-2-aminocyclohexylamino)-5-fluoro-2-(3-(thiazol-2-yl)phenylamino)nicotinamide]",1 to 10 nM
26,"Cn1ncc2cc(Nc3nc(N[C@@H]4CCCC[C@@H]4N)c(F)cc3C(N)=O)ccc21 [Example 139, 2-(1-methyl-1H-indazol-5-ylamino)-6-((1R,2S)-2-aminocyclohexylamino)-5-fluoronicotinamide]",1 to 10 nM
27,"Cc1cc(Nc2nc(N[C@@H]3CCCC[C@@H]3N)c(F)cc2C(N)=O)ccc1F [Example 322, 6-((1R,2S)-2-aminocyclohexylamino)-5-fluoro-2-(4-fluoro-3-methylphenylamino)nicotinamide]",1 to 10 nM
28,"Cn1ncc2c(Nc3nc(N[C@@H]4CCCC[C@@H]4N)c(C#N)cc3C(N)=O)cccc21 [Example 120, 6-((1R,2S)-2-aminocyclohexylamino)-5-cyano-2-(1-methyl-1H-indazol-4-ylamino)nicotinamide]",1 to 10 nM
29,"CC[C@@H](Nc1nc(Nc2cccc(OC(F)(F)F)c2)c(C(N)=O)cc1F)C(N)=O [Example 263, (R)-6-(1-amino-1-oxobutan-2-ylamino)-5-fluoro-2-(3-(trifluoromethoxy)phenylamino)nicotinamide]",100 to 1000 nM
